# Measured values from patent US10640520B2, “Boronic acid derivatives” (MERCK PATENT GMBH, priority 2014, dated 2020).
# How the values were obtained:
# LMP7 = LMP7 (Homo sapiens, UniProt P20618+P28062); experiment: Determination of LMP7 activity (fluorescence intensity assay, Suc-LLVY-AMC); assay type: biochemical; settings: purified human immunoproteasome
# Experimental: Determination of LMP7 Activity:
# Measurement of LMP7 inhibition is performed in 384 well format based on fluorescence intensity assay.
# (§1) Purified human immunoproteasome (0.25 nM) and serial diluted compounds in DMSO (range of concentrations from 30 μM to 15 pM) or controls are incubated for 20 minutes or 120 minutes (long incubation) at 25° C. in assay buffer containing 50 mM Tris pH 7.4, 0.03% SDS, 1 mM EDTA and 1% DMSO. The reaction is initiated by the addition of the fluorogenic peptide substrate, Suc-LLVY-AMC (Bachem 1-1395), at a concentration of 40 μM. After 60 minutes of incubation at 37° C., fluorescence intensity is measured at λex=350 nm and λem=450 nm with a fluorescence reader (Perkin Elmer Envision reader or equivalent).
# (§2) Unless indicated otherwise the results are obtained after incubation for 20 minutes.
# Beta5 = Beta5 (Homo sapiens, UniProt P20618+P28074); experiment: Determination of Beta5 activity (fluorescence intensity assay, Suc-LLVY-AMC); assay type: biochemical; settings: for IC50: purified human constitutive proteasome
# Experimental: Determination of Beta5 Activity:
# Measurement of Beta5 inhibition is performed in 384 well format based on fluorescence intensity assay.
# as §1, with “constitutive proteasome (1.25” for “immunoproteasome (0.25”, “[…])” for “pM)”
# as §2
# [1] = biological target: LMP7 subunit of the immunoproteasome (Homo sapiens, UniProt P20618+P28062); settings: Singh et al., Br. J. Hematology 152(2): 155-163; cited from earlier work
Structure (SMILES),IC50 (LMP7; incubation for 20 minutes),Selectivity LMP7 vs Beta5 (Beta5; incubation for 20 minutes),IC50 (Beta5; incubation for 20 minutes),IC50 (LMP7; long incubation (120 min)),Selectivity LMP7 vs Beta5 (Beta5; long incubation (120 min)),IC50 (Beta5; long incubation (120 min)),selectivity for the LMP7 subunit of the immunoproteasome [1]
"O=C(CCN1CCOCC1=O)N[C@@H](Cc1coc2ccccc12)B(O)O [Compound 28, [(1R)-2-(benzofuran-3-yl)-1-[3-(3-oxomorpholin-4-yl)propanoylamino]-ethyl]boronic acid]",< 50 nM,++ (10 ≤ Selectivity < 30),50 to 500 nM,,,,
"O=C(CCN1CC(c2ccccc2)OC1=O)N[C@@H](Cc1coc2ccccc12)B(O)O (stereo partly drawn) [Compound 29, [(1R)-2-(benzofuran-3-yl)-1-[3-(2-oxo-5-phenyl-oxazolidin-3-yl)propanoylamino]ethyl]boronic acid]",< 50 nM,++ (10 ≤ Selectivity < 30),< 50 nM,,,,
"O=C(CCN1CCCOC1=O)N[C@@H](Cc1coc2ccccc12)B(O)O [Compound 30, [(1R)-2-(benzofuran-3-yl)-1-[3-(2-oxo-1,3-oxazinan-3-yl)propanoylamino]ethyl]boronic acid]",< 50 nM,+++ (30 ≤ Selectivity < 50),50 to 500 nM,,,,
"Cc1ccc(C[C@H](NC(=O)CCN2CCCCC2=O)B(O)O)c(C)c1 [Compound 31, [(1R)-2-(2,4-dimethylphenyl)-1-[3-(2-oxo-1-piperidyl)propanoylamino]-ethyl]boronic acid]",< 50 nM,+++++ (Selectivity ≥ 70),500 to 5000 nM,,,,
"Cc1ccc(C[C@H](NC(=O)CCN2CCCCS2(=O)=O)B(O)O)c(C)c1 [Compound 32, [(1R)-2-(2,4-dimethylphenyl)-1-[3-(1,1-dioxothiazinan-2-yl)propanoylamino]ethyl]boronic acid]",< 50 nM,+++ (30 ≤ Selectivity < 50),500 to 5000 nM,,,,
"O=C(CN1C(=O)CSC1=O)N[C@@H](Cc1coc2ccccc12)B(O)O [Compound 33, [(1R)-2-(benzofuran-3-yl)-1-[[2-(2,4-dioxothiazolidin-3-yl)acetyl]-amino]ethyl]boronic acid]",< 50 nM,++ (10 ≤ Selectivity < 30),50 to 500 nM,,,,
CC1=C(C(=O)N[C@H](C)C(=O)N[C@@H](Cc2c[nH]c3ccccc23)C(=O)N[C@@H](Cc2ccccc2)C(=O)[C@@]2(C)CO2)Cc2ccccc21 [PR-924],,,,,,,100 fold

# Second part, led by results:
IC50 (LMP7; incubation for 20 minutes),Selectivity LMP7 vs Beta5 (Beta5; incubation for 20 minutes),IC50 (Beta5; incubation for 20 minutes),IC50 (LMP7; long incubation (120 min)),Selectivity LMP7 vs Beta5 (Beta5; long incubation (120 min)),IC50 (Beta5; long incubation (120 min)),Structure (SMILES),selectivity for the LMP7 subunit of the immunoproteasome [1]
< 50 nM,++ (10 ≤ Selectivity < 30),50 to 500 nM,,,,"CCN1CCN(CCC(=O)N[C@@H](Cc2coc3ccccc23)B(O)O)C(=O)C1=O [Compound 34, [(1R)-2-(benzofuran-3-yl)-1-[3-(4-ethyl-2,3-dioxo-piperazin-1-yl)propanoylamino]ethyl]boronic acid]",
< 50 nM,++ (10 ≤ Selectivity < 30),50 to 500 nM,,,,"CN1CCN(CCC(=O)N[C@@H](Cc2coc3ccccc23)B(O)O)C(=O)C1 [Compound 35, [(1R)-2-(benzofuran-3-yl)-1-[3-(4-methyl-2-oxo-piperazin-1-yl)propanoylamino]ethyl]boronic acid]",
50 to 500 nM,+++ (30 ≤ Selectivity < 50),500 to 5000 nM,,,,"Cc1ccc(C[C@H](NC(=O)C2CCC(=O)N2c2ccccc2)B(O)O)c(C)c1 (stereo partly drawn) [Compound 36, [(1R)-2-(2,4-dimethylphenyl)-1-[(5-oxo-1-phenyl-pyrrolidine-2-carbonyl)amino]-ethyl]boronic acid]",
< 50 nM,+++++ (Selectivity ≥ 70),500 to 5000 nM,,,,"O=C(N[C@@H](Cc1coc2ccccc12)B(O)O)C1CCCN1c1ccccc1 (stereo partly drawn) [Compound 37, [(1R)-2-(benzofuran-3-yl)-1-[(1-phenylpyrrolidine-2-carbonyl)amino]ethyl]boronic acid]",
,,,< 50 nM,+++++ (Selectivity ≥ 70),500 to 5000 nM,"Cc1cccc2c(C[C@H](NC(=O)CCN3C(=O)CCC3(C)C)B(O)O)coc12 [Compound 38, [(1R)-1-[3-(2,2-dimethyl-5-oxo-pyrrolidin-1-yl)propanoylamino]-2-(7-methylbenzofuran-3-yl)ethyl]boronic acid]",
,,,< 50 nM,+++++ (Selectivity ≥ 70),500 to 5000 nM,"O=C(CCN1CCCC1=O)N[C@@H](C[C@@H]1COc2ccccc21)B(O)O [Compound 39, [(1R)-2-[(3S)-2,3-dihydrobenzofuran-3-yl]-1-[3-(2-oxopyrrolidin-1-yl)propanoylamino]ethyl]boronic acid]",
,,,< 50 nM,+++++ (Selectivity ≥ 70),> 5000 nM,"Cc1cccc2c1OC[C@H]2C[C@H](NC(=O)CCN1CCCCC1=O)B(O)O [Compound 40, [(1R)-2-[(3S)-7-methyl-2,3-dihydrobenzofuran-3-yl]-1-[3-(2-oxo-1-piperidyl)propanoylamino]ethyl]boronic acid]",
